{"source": "patent US20250213452A1", "about": "“BIFUNCTIONAL PEPTIDES FOR BIOMIMETIC RECONSTRUCTION OF SILVER DIAMINE FLUORIDE TREATED DENTAL TISSUES” (University of Kansas, priority 2022, published 2025)", "key": {"[1]": {"settings": "cell-free assay, demineralized human dentin root surfaces; cited from earlier work"}, "[2]": {"assay": "Enzyme-mediated (alkaline phosphatase) mineralization on Ag-coated silica substrates, SEM/EDS", "settings": "50 μM bifunctional peptide", "method": "(§1) Lyophilized peptide stocks were selected and reconstituted in Milli-Q (resistance, >18 MQ) water immediately prior to experiments with both silver-coated silica substrates and slabs of dental tissue. Stock solutions were prepared to a final concentration of 100 μM peptide. Silica substrates or slabs of dental tissue were submerged into a solution containing 50 μM peptide and allowed 2-4 hours gentle shaking at room temperature to ensure the binding of AgBP. This excess concentration and incubation time was used to ensure ample peptide binding.\nTo confirm the selectivity and specificity for silver-binding of bifunctional peptides, preliminary studies were conducted on silver-coated silica substrates. Silica wafers were cut into 1 cm square pieces using a diamond scribe and a published protocol for […] deposition of silver onto silica was followed.^66,67 Briefly, the Si(111) wafers were cleansed in hydrogen peroxide and sulfuric acid solution (3:7) for 20 minutes, rinsed thoroughly with Milli-Q water, and dried with N2 gas prior to use. An etching step was employed prior to Ag-deposition, where a drop of 5% NH4F solution was placed on the surface of the cleaned silica substrate for 30 s and removed carefully with N2 gas. […]"}, "[3]": {"assay": "Enzyme-mediated mineralization on SDF-treated dental tissue slabs, SEM/EDS Ca/P ratio of mineral layer", "parameters": "species or system human", "settings": "for Averaged calculated Ca/P ratio: Mineralized sample", "method": "as §1\nNaCl containing 0.002% sodium azide.\nTo investigate calcium phosphate nucleation facilitated by the MP, an alkaline phosphatase (AP) based mineralization model was followed.^44 This model mimics the biological process wherein inorganic phosphate is cleaved from organic phosphate by naturally occurring AP and subsequently reacts with free calcium. Briefly, control samples without peptide and test samples functionalized with MP were submerged in a remineralization buffer containing 14.4 mM β-glycerophosphate (β-GP) and 24 mM Ca^2+ in 25 mM Tris-HCl at pH 7.4. Mineralization reactions were initiated by adding alkaline phosphatase (fastAP; ThermoFisher, USA) to the solutions to achieve a final concentration of 1.4×10^−6 g/mL and allowed to react at 37° C. for 2 hours to form a calcium phosphate mineral layer on the sample surface. Samples were removed from the solution and allowed to air dry prior to microscopic and spectroscopic analyses.\nFor the bifunctional peptide treated group, SDF-treated dental tissues were functionalized with either 0 μM or 50 μM bifunctional peptide prior to the mineralization protocol. […] On average, the Ca/P ratios from the mineralized layer observed in both the peptide-treated and SDF-treated tissue as well as the SDF-only treated tissues, were about 0.1-0.15 less than what was obtained for the untreated and peptide-functionalized Ag-coated silica samples. The presence of calcium phosphate rich minerals in the slabs of dental tissue may alter the availability of free calcium and phosphate in the enzyme-mediated mineralization reaction. […] Differences in the mineralization may also be attributed to the anchoring effect of the AgBP peptide being bound to the SDF-treated regions of the dental tissue."}, "[4]": {"settings": "SDF-treated Control", "description": "Specimens of dental tissues were prepared using a protocol modified slightly from previous publications.^45 The specimens consisted of extracted human molars. […] The extracted teeth were stored at 4° C. in 0.9% wt./vol. NaCl containing 0.002% sodium azide. […] The tooth was sectioned parallel to the long axis to provide 1.4 mm thick slabs. The prepared sections were stored in a modified phosphate buffered saline (PBS) buffer (20 mM Na2HPO4, 137 mM NaCl, 2.7 mM KCl, and 1.8 mM KH2PO4, pH 7.4) at 4° C. until experimental use.\nSDF was applied to dental tissue following the detailed guidelines published by the UCSF Caries Arrest Committee.^25,34 Briefly, the prepared slabs of dental tissue were removed from the modified PBS buffer, rinsed with Milli-Q purified water, and gently dried with compressed air to reveal suitable carious regions of the dental tissues. A single drop of commercially available 38% SDF solution (Dengen Caries Arrest; Dengen Dental, Bahadurgarh, Haryana, India) was placed into a fresh plastic dish. A microbrush applicator head was dipped into the solution and touched to the side of the dish to remove excess fluid by surface tension. The SDF was applied to the dental tissue, allowed to absorb for 1 minute and the treated sample was gently rinsed with Milli-Q purified water. The tissue was placed back into modified PBS buffer and incubated at 37° C. for 6 hours to mimic the oral environment and to allow for SDF activity.\nTo image the mineral morphology, surface coverage, and to determine the Ca/P ratios of the precipitated material, a Hitachi SU8230 Field Emission Scanning Electron Microscope (Hitachi High-Tech America, IL, USA) equipped with a silicon drift EDS detector (X-Max, Oxford Instruments, MA, USA) was used. SEM imaging was completed at 5 kV and EDS measurements made with an acceleration voltage of 10 kV to improve signal. Prior to SEM/EDS analysis, samples were sputter-coated with 5 nm iridium using a Quorum sputter coating system (Q150, Quorum, UK). EDS analysis was performed using AZtec software (Oxford Instruments, MA, USA) and values were averaged across a minimum of three regions for each sample.\nTreated dental tissues were analyzed using SEM for imaging and EDS for compositional analysis. Average Ca/P molar ratios were calculated for each slab of dental tissue from both SDF-treated and untreated regions of enamel and dentin, corresponding to SDF treatment of carious dental tissues, to assess mineral formation and compositional changes on the tooth samples in the presence and absence of the bifunctional peptide."}}, "note": "Where two headings read alike, the source gives them in different places.", "data": [{"substance": "SYEKSHSQAINTDRT [MP, mineralizing peptide domain, 15 amino acids, derived from amelogenin]", "values": [{"measurement": "hydroxyapatite mineral layer formation", "setting": "[1]", "result": "regulated formation of a robust hydroxyapatite mineral layer"}]}, {"substance": "SYEKSHSQAINTDRTAPAEQLGVRKELRGV [MP_APA_AgBP, bifunctional peptide, MP and AgBP domains joined by APA spacer]", "values": [{"measurement": "average Ca/P ratio of mineral layer", "setting": "[2]; EDS", "result": "about 1.40"}, {"measurement": "mineral coverage compared to control samples", "setting": "[2]; alkaline phosphatase-based mineralization, SEM", "result": "significantly higher mineral coverage"}, {"measurement": "Averaged calculated Ca/P ratio", "setting": "[3]; SDF-treated Peptide-functionalized (50 μM), Dentin", "result": 1.291}, {"measurement": "Averaged calculated Ca/P ratio", "setting": "[3]; SDF-treated Peptide-functionalized (50 μM), Enamel", "result": 1.338}, {"measurement": "Averaged calculated Ca/P ratio", "setting": "[3]; SDF-treated Peptide-functionalized (50 μM), SDF-stained dentin", "result": 1.238}, {"measurement": "Averaged calculated Ca/P ratio", "setting": "[3]; SDF-treated Peptide-functionalized (50 μM), SDF-stained enamel", "result": 1.257}, {"measurement": "mineralization onto SDF treated dental tissues", "setting": "[3]; four SDF treated slabs of carious dental tissue, bright field optical microscopy, FIG. 7", "result": "demonstrated the capacity to direct mineralization"}]}, {"substance": "silver diamine fluoride [SDF]", "values": [{"measurement": "Averaged calculated Ca/P ratio", "setting": "[3]; SDF-treated, 0 μM peptide, Dentin", "result": 1.066}, {"measurement": "Averaged calculated Ca/P ratio", "setting": "[3]; SDF-treated, 0 μM peptide, Enamel", "result": 1.092}, {"measurement": "Averaged calculated Ca/P ratio", "setting": "[3]; SDF-treated, 0 μM peptide, SDF-stained dentin", "result": 1.137}, {"measurement": "Averaged calculated Ca/P ratio", "setting": "[3]; SDF-treated, 0 μM peptide, SDF-stained enamel", "result": 1.100}, {"measurement": "Averaged calculated Ca/P ratio", "setting": "[4]; Dentin (untreated region)", "result": 1.419}, {"measurement": "Averaged calculated Ca/P ratio", "setting": "[4]; Enamel (untreated region)", "result": 1.447}, {"measurement": "Averaged calculated Ca/P ratio", "setting": "[4]; SDF-stained dentin", "result": 1.546}, {"measurement": "Averaged calculated Ca/P ratio", "setting": "[4]; SDF-stained enamel", "result": 1.540}]}]}
